Measured values as given in patent publication US11225480B2, “Malic enzyme inhibitors” (SUN PHARMA ADVANCED RESEARCH COMPANY LTD, priority 2019, dated 2022).

What was measured:
Format in all cases: biochemical
human ME1 enzyme = biological target: T1, human ME1 enzyme (Homo sapiens, UniProt P48163); assay: ME1 inhibition assay (diaphorase/resazurin coupled fluorescence); settings: 10 μM compound concentration; read-out: Malic Enzyme 1 % inhibition (10 μM)
T1 sequence (P48163 1-572): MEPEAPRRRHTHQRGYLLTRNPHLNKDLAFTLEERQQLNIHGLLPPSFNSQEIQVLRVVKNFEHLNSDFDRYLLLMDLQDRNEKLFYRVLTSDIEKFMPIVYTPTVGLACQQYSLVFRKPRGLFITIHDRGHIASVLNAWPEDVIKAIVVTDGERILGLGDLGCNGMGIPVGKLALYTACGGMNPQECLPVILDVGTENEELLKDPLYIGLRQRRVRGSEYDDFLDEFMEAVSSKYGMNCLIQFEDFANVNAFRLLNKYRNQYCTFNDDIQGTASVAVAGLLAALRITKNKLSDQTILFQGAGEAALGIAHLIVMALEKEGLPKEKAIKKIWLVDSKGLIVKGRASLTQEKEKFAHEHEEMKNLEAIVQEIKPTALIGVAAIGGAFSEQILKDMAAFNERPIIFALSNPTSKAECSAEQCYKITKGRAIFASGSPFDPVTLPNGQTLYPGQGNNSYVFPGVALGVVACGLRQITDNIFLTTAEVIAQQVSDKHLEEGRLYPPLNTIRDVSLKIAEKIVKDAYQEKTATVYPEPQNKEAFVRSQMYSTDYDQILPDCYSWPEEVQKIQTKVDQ
Procedure, shortened: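 Compounds at 10 μM preincubated 15 min in 50 mM Tris-HCl pH 7.5, 10 mM MnCl2, 2 mM L-malate, 10 μM resazurin, 0.01 mg/ml diaphorase, then human ME1 added for 5 min; reaction started with NADP+ and run 2 h at room temperature. Resorufin fluorescence (ex 540/em 600 nm) normalized to enzyme-only (100%) and no-enzyme (0%) controls.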

human ME2 enzyme = human ME2 enzyme (Homo sapiens, UniProt P23368); assay: ME2 inhibition assay (diaphorase/resazurin coupled fluorescence); settings: 10 μM compound concentration; read-out: Malic Enzyme 2 % inhibition (10 μM)
Procedure, shortened: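 Human ME2 (10 μL of 60 nM) was preincubated 5 min at room temperature with compound (10 μM) in 50 mM Tris-HCl pH 7.5, 10 mM MnCl2, 7 mM L-malate, 50 μM resazurin and 0.025 mg/ml diaphorase. The reaction was started with 10 μL of 2 mM β-NAD+ and run 2 hours at room temperature. Resorufin fluorescence (ex 540/em 600 nm) was normalized to enzyme-only (100%) and no-enzyme (0%) controls as % activity.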

human ME3 enzyme = biological target: T2, human ME3 enzyme (Homo sapiens, UniProt Q16798); assay: ME3 inhibition assay (diaphorase/resazurin coupled fluorescence); settings: 10 μM compound concentration; read-out: Malic Enzyme 3 % inhibition (10 μM)
T2 sequence (Q16798 1-604): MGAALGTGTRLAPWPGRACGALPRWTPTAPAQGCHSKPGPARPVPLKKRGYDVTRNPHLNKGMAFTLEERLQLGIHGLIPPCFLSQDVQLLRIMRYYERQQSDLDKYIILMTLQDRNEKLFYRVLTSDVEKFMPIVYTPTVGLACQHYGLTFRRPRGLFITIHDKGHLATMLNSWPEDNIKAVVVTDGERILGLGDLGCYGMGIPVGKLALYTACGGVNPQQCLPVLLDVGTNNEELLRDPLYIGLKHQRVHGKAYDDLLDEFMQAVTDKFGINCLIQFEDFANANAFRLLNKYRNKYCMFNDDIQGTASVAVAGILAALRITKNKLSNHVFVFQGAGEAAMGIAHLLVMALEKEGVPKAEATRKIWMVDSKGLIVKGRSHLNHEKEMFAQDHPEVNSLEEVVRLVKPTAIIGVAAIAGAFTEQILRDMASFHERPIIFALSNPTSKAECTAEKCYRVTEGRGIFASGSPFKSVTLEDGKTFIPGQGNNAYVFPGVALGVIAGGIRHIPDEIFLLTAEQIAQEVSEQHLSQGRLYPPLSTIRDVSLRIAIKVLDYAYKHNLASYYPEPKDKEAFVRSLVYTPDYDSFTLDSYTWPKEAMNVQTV
Procedure, shortened: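 Coupled read-out: NADPH made by human ME3 (20 nM stock) drives diaphorase conversion of resazurin (50 μM) to resorufin; buffer 50 mM Tris-HCl pH 7.5, 10 mM MnCl2, 3 mM L-malate.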

Sequence of human ME2 enzyme (P23368 19-584): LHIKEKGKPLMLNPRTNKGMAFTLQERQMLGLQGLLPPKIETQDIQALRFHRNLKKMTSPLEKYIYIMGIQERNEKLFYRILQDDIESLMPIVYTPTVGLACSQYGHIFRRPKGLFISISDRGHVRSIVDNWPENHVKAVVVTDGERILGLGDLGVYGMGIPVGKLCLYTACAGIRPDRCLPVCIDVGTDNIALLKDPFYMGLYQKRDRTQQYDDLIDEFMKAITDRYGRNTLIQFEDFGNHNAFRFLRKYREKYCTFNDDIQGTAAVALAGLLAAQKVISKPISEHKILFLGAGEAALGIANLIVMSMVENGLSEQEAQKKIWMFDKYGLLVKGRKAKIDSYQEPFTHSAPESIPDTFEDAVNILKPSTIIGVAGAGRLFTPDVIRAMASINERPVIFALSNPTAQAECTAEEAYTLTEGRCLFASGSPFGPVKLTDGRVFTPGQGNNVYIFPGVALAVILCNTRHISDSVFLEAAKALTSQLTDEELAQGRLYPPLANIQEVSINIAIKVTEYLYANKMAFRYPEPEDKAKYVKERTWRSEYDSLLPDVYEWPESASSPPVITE

| SMILES | inhibition at 10 µM (human ME1 enzyme) [%] | inhibition at 10 µM (human ME2 enzyme) [%] | inhibition at 10 µM (human ME3 enzyme) [%] |
| --- | --- | --- | --- |
| Cc1cccc(CCC(=O)N2CCN(c3ccc(O)cn3)CC2)c1C [I.146, 3-(2,3-Dimethyl-phenyl)-1-[4-(5-hydroxy-pyridin-2-yl)-piperazin-1-yl]-propan-1-one] | > 90 | > 90 | > 90 |
| O=C(Cc1cc(F)c(F)c(F)c1)N1CCN(c2ccc(O)cc2)CC1 [I.171, 1-[4-(4-Hydroxy-phenyl)-piperazin-1-yl]-2-(3,4,5-trifluoro-phenyl)-ethanone] | > 90 | > 90 | > 90 |
| C=CC(=O)NC(CC(=O)N1CCN(c2ccc(O)cn2)CC1)c1ccccc1 (stereo not drawn) [I.172, N-{3-[4-(5-Hydroxy-pyridin-2-yl)-piperazin-1-yl]-3-oxo-1-phenyl-propyl}-acrylamide] | 50 to 69 | > 90 | > 90 |
| Cc1cccc(Cl)c1C(=O)N1CCN(c2ccc(O)cn2)CC1 [I.80, (2-Chloro-6-methylphenyl)-[4-(5-hydroxy-pyridin-2-yl)-piperazin-1-yl]-methanone] | > 90 | > 90 | > 90 |
